Residues, ends and D or L forms follow the SMILES beside them.
What was measured:
[1] = test system: right cerebral artery ischemia/reperfusion model in rats; test: Neurologic deficit score in the rat 1.5-hour ischemia/reperfusion model; format: in vivo, Sprague-Dawley (SD) rats; settings: 3.6 mg/kg intraperitoneal once a day
Procedure: (§1) Sprague-Dawley (SD) rats, male, weighing 280-320 g, clean, feeding, conditions: room temperature of 20-25° C., humidity of 30-60%, well ventilated, ad libitum diet; the animals were acclimatized in the feeding environment for three days prior to the experiment.
(§2) The rats were anesthetized with 4% chloral hydrate (350 mg/kg, ip.) and then were fixed in a supine position. A midline ventral neck incision was made, the right common carotid artery was separated and snared with two sutures for further use. Then, the internal carotid artery and external carotid artery were separated, and the external carotid artery was ligatured. The separated common carotid artery was ligatured at its proximal end with a thread, and the blood flow of the same was blocked at its distal end with a bulldog clamp. A small opening was cut therebetween and a nylon suture (4-0) which is heated at one end into a bead-like shape (having a diameter of <0.3 mm) was inserted into the small opening. […]
Neurologic deficit scores were assessed for the above experimental animals according to the following procedure before the beginning of experiment and 24 hours, 1 day, 3 days, 7 days, 14 days, 28 days, 56 days, and 112 days after the beginning of experiment; Score rules: see Zea Longer score and NSS score, full score of 10; • (i) Lifting an animal by tail: (full score of 1) […]

[2] = Body weight of rats in the 1.5-hour ischemia/reperfusion model; format: in vivo, Sprague-Dawley (SD) rats; settings: 3.6 mg/kg intraperitoneal once a day
Procedure: as §1
as §2, with “opening. The bulldog clamp was removed, and the nylon suture was gently advanced to the origin of the anterior cerebral artery (18-20 mm), thereby causing arterial ischemia in brain by blocking the blood supply of the cerebral artery. The skin was sutured and was sterilized with tincture of iodine.” for “opening.”

CC(C)CC(NC(=O)C(CCC(N)=O)NC(=O)C(NC(=O)C(CO)NC(=O)C(Cc1c[nH]cn1)NC(=O)C(N)C(C)C)C(C)C)C(=O)NC(Cc1ccc(O)cc1)C(=O)O (stereo not shown) [compound of formula (III)] (H-VHSVQLY-OH; configuration not given here)
neuroethology (neurologic deficit) score compared to the model group ([1]; I1.5R+1 week+dosing for 4 weeks, statistically significant in weeks 2, 3, 4, 5 and 7 after the operation, FIG. 4): gradually declined neuroethology score | neurological score compared to the model group ([1]; I1.5R+2 weeks+dosing for 4 weeks, statistically significant at the fifth week after the operation, FIG. 6): declined from the beginning of the administration | weight change compared to the model group ([2]; I1.5R+1 week+dosing for 4 weeks, FIG. 3): gradually increased weight | weight change compared to the model group ([2]; I1.5R+2 weeks+dosing for 4 weeks, weight data not demonstrative (groups already differed before dosing), FIG. 5): gradually increased weight

Source: patent publication US20190040101A1, “COMPOUND FOR TREATING SEQUELAE OF ISCHEMIC CEREBRAL STROKE” (priority 2015, published 2019)
